Results: patent publication US9468670B2, “Melatonin-based treatment and diagnosis of bile duct disease” (Texas A&M University System, priority 2011, dated 2016)
“Also recorded” adds a separate entry of the source.

Legend:
[1] = test system: Mz-ChA-1 cells; assay: Mz-ChA-1 cholangiocarcinoma xenograft in nude mice: tumor size and immunohistochemistry of tumor sections; format: in vivo, nude (nu/nu) mice
Procedure: AANAT expression was assessed in liver biopsy samples from CCA patients and controls by immunohistochemistry, and in non-malignant cholangiocytes and intra- and extrahepatic CCA lines by qPCR and immunoblots. Melatonin secretion was assessed in the supernatant of normal and CCA lines, and serum and bile from controls and CCA patients by EIA. In the CCA line Mz-ChA-1 stably overexpressing AANAT, the expression of AANAT, melatonin secretion, and CCA proliferation were studied after 48 hr of incubation. In in vivo studies, Mz-ChA-1 cells were injected Sub Q into the hind flanks of nu/nu mice. Tumors were allowed to develop and volumes were measured for 41 days during treatment with saline or melatonin (4 mg/kg BW, IP 3×wk). Tumors were analyzed for AANAT, PCNA, CK-19 and Bax by qPCR and immunoblots. Tumor tissue sections were analyzed for TUNEL, and staining for AANAT, PCNA and CK-19.
Experiments were performed to evaluate the in vivo effect of melatonin on the growth of cholangiocarcinoma cell lines implanted in the flanks of athymic mice (Francis H et al., 2009). Male BALB/c 6-wk-old nude (nu/nu) mice (Taconic Farms. Hudson, N.Y.) were kept in a temperature-controlled environment (20-22° C.) with 12-hr light-dark cycles, fed ad libitum standard mouse chow, and with free access to drinking water. Mz-ChA-1 cells (5×10^6) were suspended in 0.2 ml of extracellular matrix gel and injected subcutaneously in the rear flanks of the nude mice. After the establishment of the tumor (one week with a tumor size of ˜5 mm^3) mice (n=4) were treated with vehicle (5% ethanol in water) or melatonin (4 mg/kg BW, dissolved in 5% aqueous ethanol solution) (Sewerynek et al., 1995) by IP injections three times a week. Tumor variables were measured three times a week by an electronic caliper, and volume was determined as follows: tumor volume (mm^3)=0.5×[length (mm)×width (mm)×height (mm)]. The measurements started from the first week when the tumor mass was established. After 43 days of treatment, were anesthetized with sodium pentobarbital (50 mg/kg BW IP) and tumor tissues were harvested from the flanks of the mice. Heart, liver, and kidney tissues were collected for evaluation of organ damage by H&E staining of paraffin-embedded sections ([…]). All experiments were conducted under the guidelines of the Scott & White and Texas A&M HSC IACUC Committee. Tumors were allowed to grow until maximum allowable tumor burden was reached as set forth by the Scott & White and Texas A&M HSC IACUC tumor burden policy. Tumor tissues were fixed for 4 hr in 10% buffered formalin and embedded in low-temperature fusion paraffin. Subsequently, sections (4-5 mm) were stained: (i) with H & E for evaluation of necrosis (Francis et al., 2009); and (ii) for PCNA (a marker of proliferation) (Francis et al., 2009), cleaved caspase-3 (for measurement of apoptosis) (Arai et al., 2005), AANAT, ASMT, melatonin, MT1 and MT2 by immunohistochemistry (Francis et al., 2009). Negative controls were obtained by staining the tumor sections with non-immune serum with the omission of the primary antibody. Semiquantitative analysis for these markers was evaluated by image-analysis software, Image-Pro Plus (Media Cybernetics, Silver Springs, Md.) (Lejeune et al., 2008). Three randomly chosen fields were calculated for statistics.

[2] = test system: miR-34a; assay: miRNA expression in melatonin treated xenograft tumor tissues; conditions: melatonin treatment in vivo
Procedure: Methods: miRNA expression in normal human cholangiocytes (HiBECs), and the CCA cell lines Mz-ChA-1 and TFK cells, as well as melatonin treated xenograft tumor tissues were evaluated using a hybridization-based miRNA microarray. The expression of selected mature miRNAs was also assessed by real-time PCR. The effect of selected miRNAs on cell growth and invasion was assessed using miRNA modulators to alter cellular expression. Cell migration and invasion through a matrigel layer was quantitated using commercial assays. BCL-2, period homolog 1 (PER1) and tissue inhibitor of metalloproteinases 3 (TIMP-3) mRNA expression was quantitated by real-time PCR analysis.

[3] = test system: CCA lines; assay: Proliferation by MTS assay in CCA lines and H69; format: cell-based, human; conditions: melatonin 10-7 to 10-11 M, 24-72 hours
Procedure: Methods: Melatonin immunoreactivity, the expression of melatonin biosynthesis enzymes and receptors were assessed by immunohistochemistry in tissue arrays from normal and CCA patients, and by qPCR and immunoblots in intra-hepatic and extra-hepatic CCA cell lines, and a normal cholangiocyte line (H69). Proliferation was evaluated in vitro by MTS assay in CCA lines and H69 after treatment with melatonin (10-7 to 10-11 M, 24-72 hours). In parallel, the expression of CLOCK after melatonin treatment (10-11 M for 48 hours) was assessed in CCA lines and normal cholangiocytes by qPCR.

[4] = test system: large cholangiocytes; assay: PCNA expression and PKA, ERK1/2 phosphorylation (immunoblots) in purified large cholangiocytes from treated BDL rats; format: in vivo, rat
Procedure: Cholangiocyte proliferation was evaluated by immunoblots (Francis et al., 2008) by determination of PCNA protein expression (measured as ratio to b-actin protein expression) (Francis et al., 2008), and the phosphorylation of cAMP-dependent PKA and ERK1/2 (expressed as ratio to protein expression of the corresponding total proteins) in protein ([…]) from whole cell lysate from spleen (positive control) and large cholangiocytes from BDL rats treated with vehicle or melatonin. The intensity of the bands was determined by scanning video densitometry using the phospho-imager Storm 860 and the ImageQuant TL software version 2003.02 (GE Healthcare).

[5] = test system: miR-141; assay: miRNA microarray expression profiling in BDL rat liver; conditions: reduced in BDL; after melatonin treatment in vivo
Source text: Background: microRNAs (miRNAs) are small non-coding RNAs that have been implicated in the pathology of cholestatic liver injuries. After bile duct ligation (BDL), there is enhanced biliary proliferation and intrahepatic bile duct mass (IBDM). The inventors have previously shown that: i) cholangiocytes produce melatonin and express Clock genes and that ii) melatonin inhibits in vitro and in vivo the growth of cholangiocytes and cholangiocarcinoma cell lines by modulation of the CLOCK genes. Thus, in certain aspects miRNA regulates the expression of CLOCK genes and subsequently alters the proliferation of cholangiocytes after BDL. Methods: miRNA expression in normal and BDL rat liver was evaluated using hybridization based microRNA microarray. Mouse cholangiocytes (NMCs) were used for the experiments in vitro. mRNA expression was quantitated by real-time PCR analysis and protein expression was detected by Western blot. Results: […] Bioinformatics and dual-luciferase reporter assays identified Clock and cryptochrome 1 (Cry1), a blue light-dependent regulator of the circadian feedback loop, as the direct targets of miR-141. […] Targeting of […] during cholestatic liver injuries provides an important therapeutic strategy in the regulation of cholangiocytes proliferation through the regulation of Clock and Cry 1 expression.

[6] = tumor sections, semiquantitative immunohistochemistry

COc1ccc2[nH]cc(CCNC(C)=O)c2c1 [melatonin]
Tumor size / xenograft tumor growth ([1]; nude mice, melatonin 4 mg/kg BW IP three times a week vs. vehicle): significant decrease; also recorded: significantly reduced
Necrosis (percentage of the whole field of section) ([1]; tumor sections, H&E, 4 mg/kg BW IP three times a week): >75%^ψ
AANAT [1, 6]: 1584.52 ± 127
ASMT [1, 6]: 46051.09 ± 13063.04
Cleaved caspase-3 [1, 6]: 4490.66 ± 1053.52
MT1 [1, 6]: 1847.76 ± 419.9
MT2 [1, 6]: 1417.96 ± 425.71
Melatonin (immunoreactivity) [1, 6]: 41231.48 ± 7634.43
PCNA [1, 6]: 0.25 ± 0.09 (% of total % of total nucleus
miR-34a expression in Mz-ChA-1 xenograft tumor [2]: significant reduction
Decrease in CCA growth compared to normal cholangiocytes [3]: 65%
PCNA expression in large cholangiocytes ([4]; melatonin-treated BDL rats vs. BDL control rats): decreased
Phosphorylation of cAMP-dependent PKA and ERK2 (but not ERK1) in large cholangiocytes ([4]; melatonin-treated BDL rats vs. BDL controls): decreased
miR-141 expression in BDL rat liver [5]: recovered
